Type in all cases: biochemical
The target in one experiment is human MMP13 (Homo sapiens (Human), UniProt P45452). Nature of the experiment: hMMP13 390 MMP FRET Substrate I cleavage assay, Protocol 1. Particulars: Protocol 1, 390 MMP FRET Substrate I; read-out: hMMP-13 potency IC50. As to the method:
The basis for the assay is the cleavage of the substrate 390 MMP FRET Substrate I (Anaspec Cat# AS-27076) by human MMP13 (Chemicon, Cat#CC068).
Human MMP13 is preactivated by incubated the enzyme in the same buffer complemented with 1 mM freshly prepared p-Aminophenylmercuric acetate (AMPA) for 1 h at 37° C.
(§1) The reaction is initiated by adding to the assay plate 390 MMP FRET Substrate I (10 μL, 2.5 μM) in the same buffer.
Finally, the fluorescence is read on the Envision (Perkin Elmer) after an incubation of 45 min at room temperature (Excitation 485 nm, Emission 530).

A further experiment addresses human ADAMTS-5 (Homo sapiens (Human), UniProt Q9UNA0). Nature of the experiment: hADAMTS-5 TBIS-1 cleavage assay, Protocol 3. Particulars: Protocol 3, TBIS-1 substrate, 90 min at 37° C.; read-out: hADAMTS-5 potency IC50. As for the experimental part:
The reaction is initiated by adding to the assay plate TBIS-1 (10 μL, 4.5 μM, Anaspec) in the same buffer.
Finally, the fluorescence is read on the Envision (Perkin Elmer) after an incubation of 90 min at 37° C. (Excitation 485 nm, emission 530).

A further experiment has as its target human ADAMTS6 (Homo sapiens (Human), UniProt Q9UKP5). Nature of the experiment: hADAMTS-6 520 MMP FRET substrate XII cleavage assay. The note with it: 37° C. for 2 h, read-out: hADAMTS-6 potency IC50. The source says:
The IC50 value for test compounds can be determined in a fluorescent based protease assay.
The basis for the assay is the cleavage of the substrate 520 MMP FRET substrate XII by human ADAMTS6.
The substrate contains sequence Arg-Pro-Lys-Pro-Tyr-Ala-Nva-Trp-Met-Lys (SEQ ID NO: 7) with attached a fluorescent probe and a quencher. Without ADAMTS6, the emission of the probe is quenched. If the substrate is cleaved by ADAMTS6, the emission of the probe is not quenched anymore. Inhibition of ADAMTS6 activity, will result in a decrease of the signal.
To perform the assay, 4 μL of a dilution series of compound in water, starting from 20 μM highest concentration, 1/5 dilution, is added to the wells. 2 ng ADAMTS6 enzyme is diluted in 25 mM Tris pH8.0, 0.05% CHAPS, 2.5 mM CaCl2 in a total volume of 26 μL (final concentration 0.73 nM). The reaction is started by addition of 10 μL of 1 μM 520 MMP FRET Substrate XII (final concentration, diluted in same buffer as described above) and the mixture is incubated at 37° C. for 2 h. […] After this incubation, cleavage of the substrate is measured using the Envision (Perkin Elmer, exc485/em530).

A further experiment has as its target human TACE (Homo sapiens (Human), UniProt P78536). The experiment can be described thus: hTACE 5FAM-[…]-5TAMRA cleavage assay. The note with it: 5FAM-LAQAVRSSSRK-5TAMRA, 75 min at room temperature; read-out: hTACE potency IC50. As for the experimental part: Finally, the fluorescence is read on the Envision (Perkin Elmer) after an incubation of 75 min at room temperature (Excitation 485 nm, Emission 530).

For the next experiment, the target named is human MMP14 (Homo sapiens (Human), UniProt P50281). Nature of the experiment: hMMP14 390 MMP FRET Substrate I cleavage assay. The note with it: 60 min at room temperature, read-out: hMMP-14 potency IC50. As for the experimental part: The basis for the assay is the cleavage of the substrate 390 MMP FRET Substrate I (Anaspec Cat# AS-27076) by human MMP14 (Biomol, Cat#SE-259).
as §1
Finally, the fluorescence is read on the Envision (Perkin Elmer) after an incubation of 60 min at room temperature (Excitation 485 nm, Emission 530).

Molecules are shown by their SMILES.

Sequence of human ADAMTS6 (Q9UKP5 other isoform, or with tags, fused parts or gaps): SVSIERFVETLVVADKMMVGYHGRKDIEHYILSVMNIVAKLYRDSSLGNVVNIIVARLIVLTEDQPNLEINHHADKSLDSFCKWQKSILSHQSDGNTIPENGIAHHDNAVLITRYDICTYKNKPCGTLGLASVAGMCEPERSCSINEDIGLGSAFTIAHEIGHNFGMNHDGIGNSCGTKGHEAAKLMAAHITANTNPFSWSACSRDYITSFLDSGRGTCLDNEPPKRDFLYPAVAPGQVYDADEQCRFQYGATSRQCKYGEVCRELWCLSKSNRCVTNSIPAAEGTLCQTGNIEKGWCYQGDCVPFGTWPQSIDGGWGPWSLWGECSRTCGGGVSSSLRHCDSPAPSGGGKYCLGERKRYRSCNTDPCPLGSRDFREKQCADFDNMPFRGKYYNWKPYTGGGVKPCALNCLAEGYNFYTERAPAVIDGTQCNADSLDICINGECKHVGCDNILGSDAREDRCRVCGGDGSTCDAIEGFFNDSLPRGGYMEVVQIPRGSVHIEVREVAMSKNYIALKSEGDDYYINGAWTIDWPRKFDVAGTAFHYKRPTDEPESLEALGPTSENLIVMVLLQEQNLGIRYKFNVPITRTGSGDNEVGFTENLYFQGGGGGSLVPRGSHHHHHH
Sequence of human ADAMTS-5 (Q9UNA0 262-930): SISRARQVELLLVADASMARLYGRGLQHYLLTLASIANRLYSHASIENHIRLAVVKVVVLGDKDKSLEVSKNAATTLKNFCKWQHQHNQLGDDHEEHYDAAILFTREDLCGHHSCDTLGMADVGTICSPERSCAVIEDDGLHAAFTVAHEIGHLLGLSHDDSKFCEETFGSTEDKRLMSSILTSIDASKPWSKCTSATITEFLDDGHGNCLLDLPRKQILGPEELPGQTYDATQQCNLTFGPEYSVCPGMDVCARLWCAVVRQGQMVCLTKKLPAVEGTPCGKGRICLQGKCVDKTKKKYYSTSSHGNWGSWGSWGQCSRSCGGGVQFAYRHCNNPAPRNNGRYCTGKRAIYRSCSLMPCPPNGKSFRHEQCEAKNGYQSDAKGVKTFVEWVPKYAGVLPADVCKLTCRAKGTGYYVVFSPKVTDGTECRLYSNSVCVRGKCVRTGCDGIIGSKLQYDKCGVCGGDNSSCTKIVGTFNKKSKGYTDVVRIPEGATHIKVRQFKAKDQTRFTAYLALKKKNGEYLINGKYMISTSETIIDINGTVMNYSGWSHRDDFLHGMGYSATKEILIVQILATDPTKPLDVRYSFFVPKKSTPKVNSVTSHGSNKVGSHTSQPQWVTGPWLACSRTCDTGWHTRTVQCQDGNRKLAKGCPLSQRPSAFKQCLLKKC
Sequence of human TACE (P78536 215-671): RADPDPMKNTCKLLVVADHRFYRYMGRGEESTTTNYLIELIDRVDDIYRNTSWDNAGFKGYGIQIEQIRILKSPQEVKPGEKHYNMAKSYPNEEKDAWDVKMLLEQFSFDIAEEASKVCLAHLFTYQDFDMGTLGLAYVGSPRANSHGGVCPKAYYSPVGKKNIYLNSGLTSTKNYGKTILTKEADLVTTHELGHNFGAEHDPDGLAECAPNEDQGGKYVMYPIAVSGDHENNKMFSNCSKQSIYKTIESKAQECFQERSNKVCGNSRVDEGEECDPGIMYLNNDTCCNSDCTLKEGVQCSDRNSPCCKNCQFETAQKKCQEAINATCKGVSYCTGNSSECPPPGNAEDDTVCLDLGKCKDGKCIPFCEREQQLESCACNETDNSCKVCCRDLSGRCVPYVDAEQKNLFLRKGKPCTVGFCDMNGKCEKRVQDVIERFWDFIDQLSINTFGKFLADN

For `COc1ccc(Cl)cc1C1CCN(C(=O)CCC2(C)NC(=O)NC2=O)CC1` (stereo not shown) [Cpd 41, 5-(3-(4-(5-chloro-2-methoxy-phenyl)piperidin-1-yl)-3-oxopropyl)-5-methyl-imidazolidine-2,4-dione], the IC50 on human MMP13 and on human ADAMTS-5 was greater than 100 nM throughout.
For the compound `COc1cc(C2CCN(C(=O)CCC3(C)NC(=O)NC3=O)CC2)ccc1Cl` (stereo not shown) [Cpd 36, 5-(3-(4-(4-chloro-3-methoxyl-phenyl)piperidin-1-yl)-3-oxopropyl)-5-methyl-imidazolidine-2,4-dione], the IC50 (in general, the concentration that inhibits the measured activity by half) at human ADAMTS6 is 0.001 to 25 nM; on human MMP13, greater than 100 nM; on human TACE, greater than 100 nM.
In the case of `COc1cc(C2CCN(C(=O)CCC3(C)NC(=O)NC3=O)CC2)cc(F)c1Cl` (stereo not shown) [Cpd 47, 5-(3-(4-(4-chloro-3-fluoro-5-methoxyphenyl)piperidin-1-yl)-3-oxopropyl)-5-methyl-imidazolidine-2,4-dione], the IC50 at human ADAMTS6 was 0.001 to 25 nM; on human MMP13, greater than 100 nM; at human TACE, greater than 100 nM.
As to `COc1cc(F)cc(C2CCN(C(=O)CCC3(C)NC(=O)NC3=O)CC2)c1` (stereo not shown) [Cpd 50, 5-(3-(4-(3-fluoro-5-methoxyphenyl)piperidin-1-yl)-3-oxopropyl)-5-methyl-imidazolidine-2,4-dione], the IC50 was 50 to 100 nM on human ADAMTS6, greater than 100 nM at human MMP13, greater than 100 nM on human ADAMTS-5 and greater than 100 nM at human TACE.
Take `COc1cc(C2CCN(C(=O)CC[C@H]3NC(=O)NC3=O)CC2)c(C)cc1Cl` [Cpd 33, (R)-5-(3-(4-(4-chloro-5-methoxy-2-methylphenyl)piperidin-1-yl)-3-oxopropyl) imidazolidine-2,4-dione]: the IC50 at human ADAMTS6 is 25 to 50 nM; on human MMP13 it was greater than 100 nM; on human ADAMTS-5 it was greater than 100 nM; on human TACE, greater than 100 nM.
Regarding `Cc1c(Cl)cc(Cl)cc1C1CCN(C(=O)CC[C@H]2NC(=O)NC2=O)CC1` [Cpd 48, (R)-5-(3-(4-(3,5-dichloro-2-methylphenyl)piperidin-1-yl)-3-oxopropyl) imidazolidine-2,4-dione], the IC50 on human ADAMTS6 was 50 to 100 nM; at human MMP13, greater than 100 nM; at human ADAMTS-5, greater than 100 nM; on human TACE, greater than 100 nM.
For the compound `COc1cc(C2CCN(C(=O)CC[C@H]3NC(=O)NC3=O)CC2)cc(F)c1Cl` [Cpd 46, (R)-5-(3-(4-(4-chloro-3-fluoro-5-methoxyphenyl)piperidin-1-yl)-3-oxopropyl) imidazolidine-2,4-dione], the IC50 on human ADAMTS6 is 0.001 to 25 nM; at human MMP13 it was greater than 100 nM; on human ADAMTS-5, 50 to 100 nM; on human TACE it was greater than 100 nM.
Turning to `COc1cc(OC)cc(C2CCN(C(=O)CC[C@H]3NC(=O)NC3=O)CC2)c1` [Cpd 34, (R)-5-(3-(4-(3,5-dimethoxy-phenyl)piperidin-1-yl)-3-oxopropyl) imidazolidine-2,4-dione], the IC50 on human ADAMTS6 was 50 to 100 nM; on human MMP13, greater than 100 nM; on human ADAMTS-5 it was greater than 100 nM; at human TACE, greater than 100 nM.
Regarding `COc1cc(C2CCN(C(=O)CCC3(C)NC(=O)NC3=O)CC2)cc(F)c1F` (stereo not shown) [Cpd 45, 5-(3-(4-(3,4-difluoro-5-methoxyphenyl)piperidin-1-yl)-3-oxopropyl)-5-methyl-imidazolidine-2,4-dione], the 50% inhibitory concentration (IC50) was 0.001 to 25 nM on human ADAMTS6, greater than 100 nM at human MMP13, greater than 100 nM on human ADAMTS-5 and greater than 100 nM on human TACE.
As to `COc1cc(C2CCN(C(=O)CCC3(C)NC(=O)NC3=O)CC2)ccc1F` (stereo not shown) [Cpd 55, 5-(3-(4-(4-fluoro-3-methoxyphenyl)piperidin-1-yl)-3-oxopropyl)-5-methyl-imidazolidine-2,4-dione], the IC50 was 50 to 100 nM on human ADAMTS6; greater than 100 nM on human MMP14; greater than 100 nM on human MMP13; greater than 100 nM at human ADAMTS-5; greater than 100 nM at human TACE.
For `O=C1NC(=O)[C@@H](CCC(=O)N2CCC(c3ccc(Cl)c(F)c3)CC2)N1` [Cpd 51, (R)-5-(3-(4-(4-chloro-3-fluorophenyl)piperidin-1-yl)-3-oxopropyl) imidazolidine-2,4-dione], the IC50 at human ADAMTS6 is 50 to 100 nM; on human MMP14, greater than 100 nM; at human MMP13 it was greater than 100 nM; at human ADAMTS-5, greater than 100 nM; at human TACE it was greater than 100 nM.
On to `COc1cc(OC)cc(C2CCN(C(=O)CCC3(C)NC(=O)NC3=O)CC2)c1` (stereo not shown) [Cpd 38, 5-(3-(4-(3,5-dimethoxy-phenyl)piperidin-1-yl)-3-oxopropyl)-5-methyl-imidazolidine-2,4-dione], for which the IC50 at human ADAMTS6 is 25 to 50 nM; at human MMP13 it was greater than 100 nM; at human ADAMTS-5, greater than 100 nM; at human TACE, greater than 100 nM.
In the case of `Cc1ccccc1C1CCN(C(=O)CCC2(C)NC(=O)NC2=O)CC1` (stereo not shown) [Cpd 57, 5-methyl-5-(3-oxo-3-(4-o-tolylpiperidin-1-yl)propyl) imidazolidine-2,4-dione], the IC50 at human ADAMTS6, at human MMP13, at human ADAMTS-5 and on human TACE was greater than 100 nM in each case.
For `COc1cc(Cl)ccc1C1CCN(C(=O)CC[C@H]2NC(=O)NC2=O)CC1` [Cpd 42, (R)-5-(3-(4-(4-chloro-2-methoxy-phenyl)piperidin-1-yl)-3-oxopropyl) imidazolidine-2,4-dione], the IC50 on human ADAMTS6 was 25 to 50 nM; on human MMP14, greater than 100 nM; on human MMP13 it was greater than 100 nM; at human ADAMTS-5, greater than 100 nM; at human TACE, greater than 100 nM.
For the compound `Cc1ccccc1C1CCN(C(=O)CC[C@H]2NC(=O)NC2=O)CC1` [Cpd 58, (R)-5-(3-oxo-3-(4-o-tolylpiperidin-1-yl)propyl) imidazolidine-2,4-dione], the IC50 at human ADAMTS6, at human MMP13, at human ADAMTS-5 and at human TACE was greater than 100 nM throughout.
Consider `COc1cc(C2CCN(C(=O)CC[C@H]3NC(=O)NC3=O)CC2)ccc1Cl` [Cpd 32, (R)-5-(3-(4-(4-chloro-3-methoxyphenyl)piperidin-1-yl)-3-oxopropyl) imidazolidine-2,4-dione], for which the IC50 at human ADAMTS6 is 25 to 50 nM; at human MMP13 it was greater than 100 nM; at human ADAMTS-5 it was greater than 100 nM; at human TACE, greater than 100 nM.
`COc1cc(Cl)ccc1C1CCN(C(=O)CCC2(C)NC(=O)NC2=O)CC1` (stereo not shown) [Cpd 44, 5-(3-(4-(4-chloro-2-methoxyphenyl)piperidin-1-yl)-3-oxopropyl)-5-methyl-imidazolidine-2,4-dione]: the 50% inhibitory concentration (IC50) was 0.001 to 25 nM on human ADAMTS6; greater than 100 nM at human MMP14; greater than 100 nM on human MMP13; greater than 100 nM on human ADAMTS-5; greater than 100 nM on human TACE.
`COc1cc(C2CCN(C(=O)CC[C@H]3NC(=O)NC3=O)CC2)ccc1F` [Cpd 52, (R)-5-(3-(4-(4-fluoro-3-methoxyphenyl)piperidin-1-yl)-3-oxopropyl) imidazolidine-2,4-dione]: the half-maximal inhibitory concentration (IC50) on human ADAMTS6, on human ADAMTS-5 and at human TACE was greater than 100 nM throughout.
Regarding `Cc1c(Cl)cc(Cl)cc1C1CCN(C(=O)CCC2(C)NC(=O)NC2=O)CC1` (stereo not shown) [Cpd 49, 5-(3-(4-(3,5-dichloro-2-methylphenyl)piperidin-1-yl)-3-oxopropyl)-5-methyl-imidazolidine-2,4-dione], the IC50 on human ADAMTS6 was 25 to 50 nM; at human MMP13, greater than 100 nM; on human ADAMTS-5 it was greater than 100 nM; on human TACE, greater than 100 nM.
Consider `COc1cc(C2CCN(C(=O)CC[C@H]3NC(=O)NC3=O)CC2)cc(F)c1F` [Cpd 43, (R)-5-(3-(4-(3,4-difluoro-5-methoxy-phenyl)piperidin-1-yl)-3-oxopropyl) imidazolidine-2,4-dione], for which the 50% inhibitory concentration (IC50) on human ADAMTS6 was 25 to 50 nM; on human MMP13, greater than 100 nM; on human ADAMTS-5, greater than 100 nM; on human TACE it was greater than 100 nM.
